Results: PMC9128806 (Journal of medicinal chemistry, 2021)

Tests used:
[1] = test system: human leukemia EU-1 cell line; assay: WST antiproliferative/cytotoxicity assay, EU-1; format: cell-based; conditions: for fold drop in potency, para to meta position: 16 vs 13, 17 vs 14; for fold increased potency compared to 2: para-ester replaced by acetyl or isobutyryl
[2] = mice; cited from earlier work
[3] = test system: human normal bone marrow mononuclear (NBMM) cells; assay: Clonogenic assays for CFU-GM and BFU-E; format: cell-based; conditions: 1 μM, colonies counted after 14 days, vs control
[4] = test system: ALL cell lines (EU-1 and EU-3); assay: WST cytotoxicity assay, ALL cell lines; format: cell-based; conditions: Homo sapiens, 48 h
[5] = test system: NB cell lines (NB-1643, SHEP1, and LA1–55N); assay: WST cytotoxicity assay, NB cell lines; format: cell-based; conditions: Homo sapiens, 48 h
MDM2 [6] = target: T1, MDM2 (Homo sapiens, UniProt Q00987); assay: Western blot, MDM2 expression in EU-1 cells; format: cell-based
T1 sequence (Q00987 whole entry): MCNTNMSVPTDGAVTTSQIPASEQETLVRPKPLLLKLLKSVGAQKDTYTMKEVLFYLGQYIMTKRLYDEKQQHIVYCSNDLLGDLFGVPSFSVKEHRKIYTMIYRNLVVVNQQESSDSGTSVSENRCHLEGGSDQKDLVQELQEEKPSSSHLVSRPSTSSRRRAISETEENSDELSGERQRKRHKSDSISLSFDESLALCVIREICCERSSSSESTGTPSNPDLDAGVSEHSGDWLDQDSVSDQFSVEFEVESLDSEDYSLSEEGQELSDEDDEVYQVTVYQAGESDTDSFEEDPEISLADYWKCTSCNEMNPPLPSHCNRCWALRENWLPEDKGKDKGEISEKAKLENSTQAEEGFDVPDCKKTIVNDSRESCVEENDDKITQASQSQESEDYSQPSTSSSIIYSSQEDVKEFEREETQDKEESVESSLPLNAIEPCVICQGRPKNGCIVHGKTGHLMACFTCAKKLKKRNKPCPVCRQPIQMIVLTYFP

XIAP = assay: Western blot, XIAP expression in EU-1 cells; format: cell-based, human; conditions: dose-dependent
p53, p21 and PUMA = assay: Western blot, p53 and its targets p21 and PUMA; format: cell-based, human; conditions: EU-1 cells; accompanying MDM2 downregulation
MDM2 [7] = target: T1, MDM2; assay: MDM2 binding; conditions: subsequent mechanistic studies, no data shown

Compound: Cc1ccc(NS(=O)(=O)c2ccc3c(c2)C2OCCC2C(c2cccc(C(=O)C(C)C)c2)N3)cc1C (stereo not drawn) [Compound 17, N-(3,4-Dimethylphenyl)-4-(3-isobutyrylphenyl)-2,3,3a,4,5,9b-hexahydrofuro[3,2-c]quinoline-8-sulfonamide]
- fold drop in potency, para to meta position [1]: 7 fold

Compound: Cc1ccc(NS(=O)(=O)c2ccc3c(c2)C2OCCC2C(c2ccc(C(O)C(C)C)cc2)N3)cc1C (stereo not drawn) [Compound 15, N-(3,4-Dimethylphenyl)-4-(4-(1-hydroxy-2-methylpropyl)phenyl)-2,3,3a,4,5,9b-hexahydrofuro[3,2-c]-quinoline-8-sulfonamide]
- fold decreased potency compared to 14 ([1]; EU-1 IC50 ratio): approximately 4 fold

Compound: Cc1ccc(NS(=O)(=O)c2ccc3c(c2)C2NCCC2C(c2ccc(C(=O)C(C)C)cc2)N3)cc1C (stereo not drawn) [Compound 30, N-(3,4-Dimethylphenyl)-4-(4-isobutyrylphenyl)-2,3,3a,4,5,9b-hexahydro-1H-pyrrolo[3,2-c]quinoline-8-sulfonamide]
- fold decreased potency compared to 14 ([1]; EU-1 IC50 ratio): 6 fold

Compound: Cc1ccc(NS(=O)(=O)c2ccc3c(c2Cl)C2C=CCC2C(c2ccc(S(C)(=O)=O)cc2)N3)cc1C (stereo not drawn) [Compound 44, 9-Chloro-N-(3,4-dimethylphenyl)-4-(4-(methylsulfonyl)phenyl)-3a,4,5,9b-tetrahydro-3H-cyclopenta[c]quinolone-8-sulfonamide]
- fold less potent than parent compound 42 ([1]; EU-1 IC50 ratio): approximately 6 fold

Compound: Cc1ccc(NS(=O)(=O)c2ccc3c(c2)C2C=CCC2C(c2ccc(C(=O)O)cc2)N3)cc1C (stereo not drawn) [MX69]
- tolerability [2]: well tolerated

Compound: COc1cccc2c1C(=O)c1c(O)c3c(c(O)c1C2=O)C[C@@](O)(C(=O)CO)C[C@@H]3O[C@H]1C[C@H](N)[C@H](O)[C@H](C)O1 [Dox, doxorubicin]
- CFU-GM and BFU-E colony numbers and size [3]: significantly reduced

Compound: Cc1ccc(NS(=O)(=O)c2ccc3c(c2)C2CCCC2C(c2ccc(C(=O)C(C)C)cc2)N3)cc1C (stereo not drawn) [Compound 28, N-(3,4-Dimethylphenyl)-4-(4-isobutyrylphenyl)-2,3,3a,4,5,9b-hexahydro-1H-cyclopenta[c]quinoline-8-sulfonamide]
- fold drop in potency compared to 27 ([1]; saturation of cyclopentene double bond): approximately 3 fold

Compound: Cc1ccc(NS(=O)(=O)c2ccc3c(c2)C2OCCC2C(c2ccc(C(=O)c4ccccc4)cc2)N3)cc1C (stereo not drawn) [Compound 26, 4-(4-Benzoylphenyl)-N-(3,4-dimethylphenyl)-2,3,3a,4,5,9b-hexahydrofuro[3,2-c]quinoline-8-sulfonamide]
- fold decreased potency compared to 14 ([1]; EU-1 IC50 ratio): approximately 6 fold

Compound: Cc1ccc(N(C)S(=O)(=O)c2ccc3c(c2)C2OCCC2C(c2ccc(C(=O)C(C)C)cc2)N3C)cc1C (stereo not drawn) [Compound 45, N-(3,4-Dimethylphenyl)-4-(4-isobutyrylphenyl)-N,5-dimethyl-2,3,3a,4,5,9b-hexahydrofuro[3,2-c]quinoline-8-sulfonamide]
- fold decreased potency compared to 14 ([1]; EU-1 IC50 ratio): 2 fold

Compound: Cc1ccc(NS(=O)(=O)c2ccc3c(c2)C2OCCC2C(c2ccc(C(=O)C4CCCCC4)cc2)N3)cc1C (stereo not drawn) [Compound 25, 4-(4-(Cyclohexanecarbonyl)phenyl)-N-(3,4-dimethylphenyl)-2,3,3a,4,5,9b-hexahydrofuro[3,2-c]quinoline-8-sulfonamide]
- fold decreased potency compared to 14 ([1]; EU-1 IC50 ratio): approximately 6 fold

Compound: Cc1ccc(NS(=O)(=O)c2ccc3c(c2)C2OCCC2C(c2ccc(C(=O)C4CC4)cc2)N3)cc1C (stereo not drawn) [Compound 22, 4-(4-(Cyclopropanecarbonyl)phenyl)-N-(3,4-dimethylphenyl)-2,3,3a,4,5,9b-hexahydrofuro[3,2-c]quinoline-8-sulfonamide]
- fold decreased potency compared to 14 ([1]; EU-1 IC50 ratio): 10 fold

Compound: Cc1ccc(N(C)S(=O)(=O)c2ccc3c(c2)C2OCCC2C(c2ccc(C(=O)C(C)C)cc2)N3)cc1C (stereo not drawn) [Compound 46, N-(3,4-Dimethylphenyl)-4-(4-isobutyrylphenyl)-N-methyl-2,3,3a,4,5,9b-hexahydrofuro[3,2-c]quinoline-8-sulfonamide]
- fold decreased potency compared to 14 ([1]; EU-1 IC50 ratio): 3 fold

Compound: CC(=O)c1cccc(C2Nc3ccc(S(=O)(=O)Nc4ccc(C)c(C)c4)cc3C3OCCC23)c1 (stereo not drawn) [Compound 16, 4-(3-Acetylphenyl)-N-(3,4-dimethylphenyl)-2,3,3a,4,5,9b-hexahydrofuro[3,2-c]quinoline-8-sulfonamide]
- fold drop in potency, para to meta position [1]: 4 fold

Compound: Cc1ccc(NS(=O)(=O)c2ccc3c(c2)C2OCCC2C(c2ccc(C(=O)C(C)C)cc2)N3)cc1C (stereo not drawn) [Compound 14, N-(3,4-Dimethylphenyl)-4-(4-isobutyrylphenyl)-2,3,3a,4,5,9b-hexahydrofuro[3,2-c]quinoline-8-sulfonamide]
- fold increased potency compared to 2 [1]: approximately 4 fold
- IC50 [4]: 300 to 400 nM
- IC50 [5]: 500 to 1200 nM
- time after treatment at which downregulation of MDM2 and XIAP occurred (MDM2 [6]; MDM2 and XIAP): 2 to 4 h
- MDM2 expression (MDM2 [6]; dose-dependent): remarkable downregulation
- XIAP expression (XIAP): remarkable downregulation
- p53 expression (p53, p21 and PUMA): increased expression of p53

Compound: Cc1ccc(NS(=O)(=O)c2ccc3c(c2)[C@H]2OCC[C@H]2[C@@H](c2ccc(C(=O)C(C)C)cc2)N3)cc1C [Compound 14d, (3aS,4S,9bS)-N-(3,4-Dimethylphenyl)-4-(4-isobutyrylphenyl)-2,3,3a,4,5,9b-hexahydrofuro[3,2-c]quinoline-8-sulfonamide]
- fold higher potency compared to the other three isomers ([1]; 14d vs 14a–c): 5- to 8 fold

Compound: Cc1ccc(NS(=O)(=O)c2ccc3c(c2)C2C=CCC2C(c2ccc(C(=O)C(C)C)cc2)N3)cc1C (stereo not drawn) [Compound 27, N-(3,4-Dimethylphenyl)-4-(4-isobutyrylphenyl)-3a,4,5,9b-tetrahydro-3H-cyclopenta[c]quinoline-8-sulfonamide]
- fold decreased potency compared to 14 ([1]; EU-1 IC50 ratio): 5 fold

Compound: CC(=O)c1ccc(C2Nc3ccc(S(=O)(=O)Nc4ccc(C)c(C)c4)cc3C3OCCC23)cc1 (stereo not drawn) [Compound 13, 4-(4-Acetylphenyl)-N-(3,4-dimethylphenyl)-2,3,3a,4,5,9b-hexahydrofuro[3,2-c]quinoline-8-sulfonamide]
- fold increased potency compared to 2 [1]: approximately 4 fold
- binding to the MDM2 target (MDM2 [7]): does not bind to the MDM2 target
